Data: ChEMBL document CHEMBL5661967, “Antitumor activity of HKI-272, an orally active, irreversible inhibitor of the HER-2 tyrosine kinase” (Cancer Res, 2004)
pIC50: −log10 of the molar value. Active and inactive are the calls of the source. No cut-off for these calls is given here.

Assays:
[1] = target: Inhibitor of nuclear factor kappa-B kinase subunit beta (Homo sapiens, UniProt O14920); assay: Inhibition of recombinant IKK-2 (unknown origin) using peptide as substrate
[2] = target: Vascular endothelial growth factor receptor 2 (Homo sapiens, UniProt P35968); assay: Inhibition of recombinant KDR (unknown origin) using poly[Glu:Tyr] (4:1) as substrate
Sequence of Vascular endothelial growth factor receptor 2 (P35968 whole entry): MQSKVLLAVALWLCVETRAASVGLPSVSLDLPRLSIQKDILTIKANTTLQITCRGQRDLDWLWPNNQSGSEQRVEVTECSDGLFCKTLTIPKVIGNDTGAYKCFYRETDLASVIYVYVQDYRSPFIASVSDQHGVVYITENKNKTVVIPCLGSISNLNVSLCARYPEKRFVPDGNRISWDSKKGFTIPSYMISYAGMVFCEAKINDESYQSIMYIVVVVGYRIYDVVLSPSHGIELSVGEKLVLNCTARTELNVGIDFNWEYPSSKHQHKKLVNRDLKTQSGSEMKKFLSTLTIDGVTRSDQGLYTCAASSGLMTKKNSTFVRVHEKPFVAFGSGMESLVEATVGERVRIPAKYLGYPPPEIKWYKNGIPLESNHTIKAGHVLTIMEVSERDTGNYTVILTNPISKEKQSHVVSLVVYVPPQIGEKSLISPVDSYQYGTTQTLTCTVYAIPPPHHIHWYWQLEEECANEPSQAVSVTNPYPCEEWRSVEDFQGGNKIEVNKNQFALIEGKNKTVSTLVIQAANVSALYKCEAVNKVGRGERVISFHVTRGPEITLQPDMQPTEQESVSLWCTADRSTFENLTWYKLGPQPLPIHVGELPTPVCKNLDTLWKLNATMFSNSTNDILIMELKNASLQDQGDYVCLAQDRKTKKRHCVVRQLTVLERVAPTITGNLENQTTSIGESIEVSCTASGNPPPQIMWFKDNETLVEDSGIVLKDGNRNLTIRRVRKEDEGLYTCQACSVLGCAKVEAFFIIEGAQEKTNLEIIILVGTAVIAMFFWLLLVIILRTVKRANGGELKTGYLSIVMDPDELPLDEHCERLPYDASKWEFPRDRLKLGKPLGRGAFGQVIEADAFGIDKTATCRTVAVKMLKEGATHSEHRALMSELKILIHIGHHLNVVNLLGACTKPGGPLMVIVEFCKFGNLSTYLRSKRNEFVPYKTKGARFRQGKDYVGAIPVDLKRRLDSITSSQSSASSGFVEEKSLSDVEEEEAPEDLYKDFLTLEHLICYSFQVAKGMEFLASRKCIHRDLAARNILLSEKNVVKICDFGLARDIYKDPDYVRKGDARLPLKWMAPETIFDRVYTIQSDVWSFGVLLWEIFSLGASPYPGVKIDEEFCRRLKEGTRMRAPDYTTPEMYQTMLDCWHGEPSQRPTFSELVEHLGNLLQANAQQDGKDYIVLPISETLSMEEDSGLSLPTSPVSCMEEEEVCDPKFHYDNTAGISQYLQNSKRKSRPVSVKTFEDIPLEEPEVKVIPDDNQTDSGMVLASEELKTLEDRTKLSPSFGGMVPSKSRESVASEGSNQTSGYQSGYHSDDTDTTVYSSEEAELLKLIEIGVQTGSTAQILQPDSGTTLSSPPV

[3] = target: RAF proto-oncogene serine/threonine-protein kinase (Homo sapiens, UniProt P04049); assay: Inhibition of recombinant c-Raf (unknown origin) using protein as substrate
[4] = target: Proto-oncogene tyrosine-protein kinase Src (Homo sapiens, UniProt P12931); assay: Inhibition of recombinant Src (unknown origin) using peptide as substrate
[5] = organism: Homo sapiens; assay: Selectivity ratio of IC50 for recombinant KDR (unknown origin) to IC50 for recombinant N-terminal His6-tagged HER2 cytoplasmic domain (676 to 1255 residues)(unknown origin) expressed in baculovirus infected Sf9 insect cells
[6] = organism: Homo sapiens; assay: Selectivity ratio of IC50 for recombinant Src (unknown origin) to IC50 for recombinant N-terminal His6-tagged HER2 cytoplasmic domain (676 to 1255 residues)(unknown origin) expressed in baculovirus infected Sf9 insect cells
[7] = system: NIH3T3; assay: Antiproliferative activity against mouse 3T3 cells transfected with HER-2 oncogene measured after 2 days by sulforhodamine B assay; format: functional, cell-based; details: NIH3T3, 48 h
[8] = system: SK-BR-3; assay: Antiproliferative activity against human SK-BR-3 cells measured after 2 days by sulforhodamine B assay; format: functional, cell-based; details: SK-BR-3, 48 h
[9] = target: T1, Receptor tyrosine-protein kinase erbB-2 (Homo sapiens, UniProt P04626); assay: Inhibition of HER2 autophosphorylation in human BT-474 cells at 1 uM measured after 3 hrs by Western blot analysis relative to control; format: cell-based
T1 sequence (P04626 whole entry): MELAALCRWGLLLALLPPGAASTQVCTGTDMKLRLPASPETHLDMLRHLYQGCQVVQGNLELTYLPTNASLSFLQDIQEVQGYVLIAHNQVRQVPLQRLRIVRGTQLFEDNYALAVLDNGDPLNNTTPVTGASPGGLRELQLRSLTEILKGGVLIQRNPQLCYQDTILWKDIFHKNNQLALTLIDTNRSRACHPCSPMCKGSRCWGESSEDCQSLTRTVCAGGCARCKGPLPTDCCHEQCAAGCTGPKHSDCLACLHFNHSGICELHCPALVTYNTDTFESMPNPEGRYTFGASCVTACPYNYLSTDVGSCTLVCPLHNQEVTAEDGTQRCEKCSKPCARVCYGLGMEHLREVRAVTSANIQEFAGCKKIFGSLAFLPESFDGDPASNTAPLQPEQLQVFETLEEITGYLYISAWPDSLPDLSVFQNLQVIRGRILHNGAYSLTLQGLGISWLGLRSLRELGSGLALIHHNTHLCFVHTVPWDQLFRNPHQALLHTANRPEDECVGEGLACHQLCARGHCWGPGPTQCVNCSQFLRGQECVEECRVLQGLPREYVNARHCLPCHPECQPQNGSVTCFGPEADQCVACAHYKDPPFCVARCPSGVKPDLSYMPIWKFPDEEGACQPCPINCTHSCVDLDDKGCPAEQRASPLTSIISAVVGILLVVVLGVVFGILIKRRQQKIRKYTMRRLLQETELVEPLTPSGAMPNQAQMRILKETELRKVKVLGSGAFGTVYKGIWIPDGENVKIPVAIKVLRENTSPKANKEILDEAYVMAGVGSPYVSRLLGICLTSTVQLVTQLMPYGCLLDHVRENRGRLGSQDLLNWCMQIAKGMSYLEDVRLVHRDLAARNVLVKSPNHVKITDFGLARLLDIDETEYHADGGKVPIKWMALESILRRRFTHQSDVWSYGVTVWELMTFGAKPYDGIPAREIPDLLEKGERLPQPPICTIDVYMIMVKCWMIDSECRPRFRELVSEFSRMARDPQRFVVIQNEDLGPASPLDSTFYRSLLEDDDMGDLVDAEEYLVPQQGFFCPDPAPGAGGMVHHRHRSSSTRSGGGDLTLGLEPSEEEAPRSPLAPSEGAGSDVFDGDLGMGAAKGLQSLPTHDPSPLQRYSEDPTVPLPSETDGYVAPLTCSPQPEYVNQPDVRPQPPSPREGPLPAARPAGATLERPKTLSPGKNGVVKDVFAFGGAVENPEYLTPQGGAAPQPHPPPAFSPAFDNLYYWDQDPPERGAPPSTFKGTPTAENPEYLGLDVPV

[10] = target: T1, Receptor tyrosine-protein kinase erbB-2; assay: Irreversible inhibition of HER2 autophosphorylation in human BT-474 cells at 1 uM incubated for 3 hrs followed by compound washout and further incubated for 5 hrs by Western blot analysis relative to control; format: cell-based
[11] = target: Epidermal growth factor receptor (Homo sapiens, UniProt P00533); assay: Inhibition of EGF-induced EGFR phosphorylation in human A-431 cells at 1 uM incubated for 3 hrs by Western blot analysis relative to control; format: cell-based
Sequence of Epidermal growth factor receptor (P00533 whole entry, the tested form may be a part): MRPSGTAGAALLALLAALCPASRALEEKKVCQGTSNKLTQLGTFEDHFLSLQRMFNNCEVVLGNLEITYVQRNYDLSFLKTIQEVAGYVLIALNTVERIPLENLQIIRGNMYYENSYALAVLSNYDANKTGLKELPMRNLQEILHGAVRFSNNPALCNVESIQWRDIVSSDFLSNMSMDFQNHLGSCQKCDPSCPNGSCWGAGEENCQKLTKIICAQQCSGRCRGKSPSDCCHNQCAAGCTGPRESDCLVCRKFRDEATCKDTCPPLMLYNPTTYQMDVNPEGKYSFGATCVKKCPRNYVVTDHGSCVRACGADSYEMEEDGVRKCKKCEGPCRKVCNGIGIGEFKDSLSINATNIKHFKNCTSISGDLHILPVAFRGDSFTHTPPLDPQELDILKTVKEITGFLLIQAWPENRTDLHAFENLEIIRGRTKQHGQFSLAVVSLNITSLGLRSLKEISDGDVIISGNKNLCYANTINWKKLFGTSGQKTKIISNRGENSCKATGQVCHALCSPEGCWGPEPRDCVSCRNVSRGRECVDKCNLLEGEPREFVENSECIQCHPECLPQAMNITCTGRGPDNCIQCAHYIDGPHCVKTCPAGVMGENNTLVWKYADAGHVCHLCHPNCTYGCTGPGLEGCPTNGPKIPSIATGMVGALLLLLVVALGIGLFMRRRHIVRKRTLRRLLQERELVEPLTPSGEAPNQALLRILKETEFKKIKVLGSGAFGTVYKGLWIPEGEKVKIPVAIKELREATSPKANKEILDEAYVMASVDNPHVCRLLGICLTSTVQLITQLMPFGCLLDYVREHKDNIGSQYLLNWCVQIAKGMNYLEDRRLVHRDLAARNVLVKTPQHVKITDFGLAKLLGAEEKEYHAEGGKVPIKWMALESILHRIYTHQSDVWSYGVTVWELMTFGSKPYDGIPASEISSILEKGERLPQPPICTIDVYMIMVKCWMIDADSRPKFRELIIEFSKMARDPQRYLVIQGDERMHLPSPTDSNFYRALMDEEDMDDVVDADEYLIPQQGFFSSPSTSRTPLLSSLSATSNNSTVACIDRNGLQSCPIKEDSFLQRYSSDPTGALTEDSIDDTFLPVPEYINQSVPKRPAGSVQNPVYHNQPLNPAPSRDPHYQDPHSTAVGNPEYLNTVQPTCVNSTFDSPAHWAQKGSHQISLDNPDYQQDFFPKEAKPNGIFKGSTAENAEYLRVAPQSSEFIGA

[12] = target: T1, Receptor tyrosine-protein kinase erbB-2; assay: Inhibition of [14C]HKI-272 binding to recombinant N-terminal His6-tagged HER2 cytoplasmic domain (676 to 1255 residues)(unknown origin) expressed in baculovirus infected Sf9 insect cells at 5 uM measured after 15 mins by fluorography
[13] = target: Retinoblastoma-associated protein (Homo sapiens) (UniProt P06400); assay: Inhibition of Rb phosphorylation in human BT-474 cells at 1 to 10 nM incubated for 12 to 16 hrs by Western blot analysis; format: cell-based; details: dose 1-10 nM, time 12-16 hrs
Sequence of Retinoblastoma-associated protein (Homo sapiens) (P06400 whole entry): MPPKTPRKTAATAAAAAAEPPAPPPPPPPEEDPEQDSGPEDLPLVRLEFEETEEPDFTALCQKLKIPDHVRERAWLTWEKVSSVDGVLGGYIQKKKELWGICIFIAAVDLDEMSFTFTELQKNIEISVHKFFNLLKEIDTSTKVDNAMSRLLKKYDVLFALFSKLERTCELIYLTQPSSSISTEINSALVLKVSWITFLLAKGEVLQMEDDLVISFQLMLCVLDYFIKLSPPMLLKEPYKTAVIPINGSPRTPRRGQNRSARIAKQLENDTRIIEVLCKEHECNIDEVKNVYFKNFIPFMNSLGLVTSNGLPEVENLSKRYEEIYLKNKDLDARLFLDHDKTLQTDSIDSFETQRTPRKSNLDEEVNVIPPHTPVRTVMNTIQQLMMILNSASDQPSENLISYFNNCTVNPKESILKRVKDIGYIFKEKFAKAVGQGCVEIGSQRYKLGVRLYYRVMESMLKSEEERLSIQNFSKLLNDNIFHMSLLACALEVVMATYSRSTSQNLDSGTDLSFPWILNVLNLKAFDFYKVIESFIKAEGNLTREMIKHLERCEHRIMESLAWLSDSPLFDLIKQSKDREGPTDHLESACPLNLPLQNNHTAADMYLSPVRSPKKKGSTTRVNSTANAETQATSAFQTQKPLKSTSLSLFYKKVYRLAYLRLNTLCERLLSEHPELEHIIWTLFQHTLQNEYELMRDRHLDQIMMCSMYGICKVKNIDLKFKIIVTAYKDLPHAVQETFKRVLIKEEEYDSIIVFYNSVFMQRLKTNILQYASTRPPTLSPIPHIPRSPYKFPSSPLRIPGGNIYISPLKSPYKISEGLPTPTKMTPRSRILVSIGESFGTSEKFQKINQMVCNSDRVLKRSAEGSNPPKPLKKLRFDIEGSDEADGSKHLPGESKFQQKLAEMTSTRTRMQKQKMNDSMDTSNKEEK

[14] = system: BT-474; assay: Cell cycle arrest in human BT-474 cells assessed as up regulation of p27 expression at 1 to 10 nM incubated for 12 to 16 hrs by Western blot analysis; format: functional, cell-based; details: dose 1-10 nM, time 12-16 hrs
[15] = system: BT-474; assay: Cell cycle arrest in human BT-474 cells assessed as accumulation of cells at Sub-G1 phase at 1 nM measured after 12 to 16 hrs by propidium iodide staining based flow cytometry (reference value: 8%); format: functional; details: time 12-16 hrs
[16] = system: BT-474; assay: Cell cycle arrest in human BT-474 cells assessed as accumulation of cells at G0-G1 phase at 1 nM measured after 12 to 16 hrs by propidium iodide staining based flow cytometry (reference value: 61%); format: functional; details: time 12-16 hrs
[17] = system: BT-474; assay: Cell cycle arrest in human BT-474 cells assessed as accumulation of cells at S phase at 0.4 nM measured after 12 to 16 hrs by propidium iodide staining based flow cytometry (reference value: 21%); format: functional; details: time 12-16 hrs
[18] = system: BT-474; assay: Cell cycle arrest in human BT-474 cells assessed as accumulation of cells at G2/M phase at 0.2 nM measured after 12 to 16 hrs by propidium iodide staining based flow cytometry (reference value: 11%); format: functional; details: time 12-16 hrs
[19] = system: BT-474; assay: Cell cycle arrest in human BT-474 cells assessed as accumulation of cells at G2/M phase at 1 nM measured after 12 to 16 hrs by propidium iodide staining based flow cytometry (reference value: 11%); format: functional; details: time 12-16 hrs
[20] = system: NIH3T3; assay: Antitumor activity against mouse 3T3 cells transfected with HER-2 oncogene implanted in po dosed athymic nude mouse assessed as tumor growth inhibition administered daily for 10 days via gavage and measured on day 21; format: functional, organism-based; details: dose 20-80 mg/kg, time 21.0 day
[21] = system: NIH3T3; assay: Antitumor activity against mouse 3T3 cells transfected with HER-2 oncogene implanted in athymic nude mouse assessed as tumor growth inhibition at 20 mg/kg, po administered daily for 10 days via gavage and measured on day 21 relative to control; format: functional; details: NIH3T3, 504 h, time 21 day, read-out: TGI
[22] = system: NIH3T3; assay: Antitumor activity against mouse 3T3 cells transfected with HER-2 oncogene implanted in athymic nude mouse assessed as tumor growth inhibition at 80 mg/kg, po administered daily for 10 days via gavage and measured on day 21 relative to control; format: functional; details: NIH3T3, 504 h, time 21 day, read-out: TGI
[23] = system: NIH3T3; assay: Antitumor activity against mouse 3T3 cells transfected with HER-2 oncogene implanted in athymic nude mouse assessed as tumor growth inhibition at 10 mg/kg, po administered daily for 10 days via gavage and measured on day 14 relative to control; format: functional; details: NIH3T3, 336 h, time 14 day, read-out: TGI
[24] = system: BT-474; assay: Antitumor activity against human BT-474 cells xenografted in athymic nude mouse assessed as tumor growth inhibition at 10 mg/kg, po administered daily for 20 days via gavage and measured on day 28 relative to control; format: functional; details: BT-474, 672 h, time 28 day, read-out: TGI
[25] = system: BT-474; assay: Antitumor activity against human BT-474 cells xenografted in athymic nude mouse assessed as tumor growth inhibition at 40 mg/kg, po administered daily for 20 days via gavage and measured on day 28 relative to control; format: functional; details: BT-474, 672 h, time 28 day, read-out: TGI
[26] = system: BT-474; assay: Antitumor activity against human BT-474 cells xenografted in athymic nude mouse assessed as tumor growth inhibition at 40 mg/kg, po administered daily for 20 days via gavage and measured on day 21 relative to control; format: functional; details: BT-474, 504 h, time 21 day, read-out: TGI
[27] = In vivo inhibition of HER2 autophosphorylation in human BT-474 cells xenografted athymic nude mouse at 40 mg/kg, po administered as single dose via gavage measured after 1 hr by immunoblot analysis relative to control; format: functional
[28] = system: A-431; assay: Antitumor activity against human A-431 cells xenografted in athymic nude mouse assessed as tumor growth inhibition at 60 mg/kg, po administered daily for 10 days via gavage and measured on day 15 relative to control; format: functional; details: A-431, 360 h, time 15 day, read-out: TGI
[29] = system: MX1; assay: Antitumor activity against human MX1 cells xenografted in athymic nude mouse assessed as tumor growth inhibition; format: functional, cell-based
[30] = Toxicity in human BT-474 cells xenografted athymic nude mouse at 10 to 40 mg/kg, po administered daily via gavage for 20 days; format: organism-based; details: in vivo, 480 h, dose 10-40 mg/kg, time 20 day
[31] = Toxicity in human SK-OV-3 cells xenografted athymic nude mouse at 10 to 60 mg/kg, po administered daily via gavage for 20 days; format: organism-based; details: in vivo, 480 h, dose 10-60 mg/kg, time 20 day

COc1cc2ncc(C#N)c(Nc3ccc(OCc4ccccn4)c(Cl)c3)c2cc1NC(=O)/C=C/CN(C)C
pIC50 [1]: < 5.05
pIC50 [2]: 6.10
pIC50 [3]: < 4.74
pIC50 [4]: 5.85
Ratio IC50 [5]: 14
Ratio IC50 [6]: 24
pIC50 [7]: 8.52
pIC50 [8]: 8.70
inhibition [9]: 98%
inhibition [10]: 97%
inhibition [11]: > 99%
inhibition [12]: Active
inhibition [13]: Active
Activity [14]: Active
Activity [15]: 7%
Activity [16]: 69%
Activity [17]: 12%
Activity [18]: 13%
Activity [19]: 14%
TGI [20]: Dose-Dependent Effect
inhibition in vivo at 20 mg/kg [21]: 53%
inhibition in vivo at 80 mg/kg [22]: 98%
inhibition in vivo at 10 mg/kg [23]: 34%
inhibition in vivo at 10 mg/kg [24]: 67%
inhibition in vivo at 40 mg/kg [25]: 93%
inhibition in vivo at 40 mg/kg [26]: 88%
inhibition in vivo at 40 mg/kg [27]: 84%
inhibition in vivo at 60 mg/kg [28]: 76%
TGI [29]: inactive
Activity [30]: Non-Toxic
Activity [31]: Non-Toxic
